These results are taken from patent US5521284A, “Human cancer inhibitory pentapeptide amides and esters” (priority 1994, dated 1996).

Data set [1] concerns P388 Lymphocytic Leukemia. Nature of the data set: Murine in vivo system, P388 Lymphocytic Leukemia. An excerpt:
(§1) T/C = Test Control, both bearing tumor, expressed in time of survival.
(§2) T/C - 100 = % life extension.

For data set [2], the system named is L1210 Lymphocytic Leukemia. Nature of the data set: Murine in vivo system, L1210 Lymphocytic Leukemia. Conditions: 1.63 μg/kg; time of survival.
Description: (§3) Experimental Anticancer Activity of Dolastatin 10 in
(§4) Murine in vivo Systems, T/C (μg/kg)
as §2

In the next data set the test system is B16 Melanoma. Nature of the data set: Murine in vivo system, B16 Melanoma. As to conditions: 11.11 μg/kg.
Description: as §3, §4, §2

Data set [3] has as its system LOX Human Melanoma Xenograph. Nature of the data set: LOX Human Melanoma Xenograph (Nude Mouse).
Description: as §1, §2

A further data set has as its system Human Mammary Xenograph. Nature of the data set: Human Mammary Xenograph Nude Mouse. As to conditions: 26 μg/kg.
Description: as §1, §2

In data set [4] the test system is OVCAR-3 Human Ovary Xenograph. Nature of the data set: OVCAR-3 Human Ovary Xenograph Nude Mouse. The format is in vivo. Conditions: 40 μg/kg; time of survival.
Description: as §3, §4, §2

Data set [5] relates to MX-1 Human Mammary Xenograft. Nature of the data set: MX-1 Human Mammary Xenograft (Tumor Regression). Type of data set: in vivo, Murine.
Description: as §3, §4, §2
Background: A xenograft is tissue or cells of one species grown in another, often human tumour cells in immunodeficient mice.

Another data set has as its system OVCAR-3. Nature of the data set: NCI in vitro mini panel, Ovarian OVCAR-3. Conditions: 48 hrs. The format is cell-based, Human. Here is the method:
(§5) ED50 (P388) and GI50 (HTCL) identify the drug dose which reduces the percent tumor/cell growth to 50%. There is no mathematical difference between ED50 and GI50, both of which are calculated using the same formula. The only difference is historical usage.
(§6) TGI, means "Total Growth Inhibition", and identifies the drug dose needed to yield zero percent growth, i.e. there are just as many cells at the end of the experiment as were present at the beginning. Whether just as many cells were killed as were produced (steady state), or no growth occurred (total inhibition) cannot be distinguished.
(§7) LC50, means "Lethal Concentration 50%", and identifies the drug concentration which reduces to one-half of the cells originally present at the beginning of the experiment.
(§8) Each drug is tested at five (5) doses: 100-10-1-0.1-0.01--μg/mL. Percent Growths are calculated for each dose. The two (or three) doses with growth values above, below, (or near to) 50% growth are used to calculate the ED50 /GI50 values using a linear regression computation. If no dose yields a growth value under 50%, the results are expressed as: ED50 >(highest dose). If no dose yields growth higher than 50% growth, then ED50 <(lowest dose). Similar calculations are performed for the TGI at 0% growth, and at -50% growth for the LC50.
(§9) At the start of each experiment, cells from the in vitro cell cultures are inoculated into the appropriate tubes or microtiter plates. One set of control tubes/plates is immediately counted to determine the number of cells at the start of the experiment. This is the "baseline count", or "Tzero reading". At the end of the experiment (48 hrs later), a second set of control tubes/plates is analyzed to determine the "Control Growth" value. The growth (or death) of cells relative to the initial quantity of cells is used to define the "Percent of Growth."
(§10) For each of six cell lines, GI50, TGI, and LC50 amounts were also calculated for each of the compounds. Each compound was also tested against the PS-388 cell line and for this test an ED50 was calculated.
(§11) The protocols followed, for the NCI minipanel are, except for the number of cell lines, those established by M. R. Boyd Ph.D., and well known to those of ordinary skill in the art. The procedure followed for the test against PS-388 Leukemia is the same that was followed in the superseded NCI P-388 screening test, which is also well known to those having ordinary skill in the art.

The test system of the next data set is SF-295. Nature of the data set: NCI in vitro mini panel, CNS SF-295. As to conditions: 48 hrs. The format is cell-based, Human. As to the method:
as §5, §6, §7, §8, §9, §10, §11

In a further data set the test system is A498. Nature of the data set: NCI in vitro mini panel, Renal A498. The format is cell-based, Human. As to conditions: 48 hrs. Here is the method:
as §5, §6, §7, §8, §9, §10, §11

In a further data set the test system is NCI-H460. Nature of the data set: NCI in vitro mini panel, Lung-NSC NCI-H460. The format is cell-based, Human. Conditions: 48 hrs. As to the method:
as §5, §6, §7, §8, §9, §10, §11

The next data set deals with KM20L2. Nature of the data set: NCI in vitro mini panel, Colon KM20L2. Type of data set: cell-based, Human. As to conditions: 48 hrs. Here is the method: as §5, §6, §7, §8, §9, §10, §11
In another data set the test system is SK-MEL-5. Nature of the data set: NCI in vitro mini panel, Melanoma SK-MEL-5. Type of data set: cell-based, Human. Conditions: 48 hrs. As to the method:
as §5, §6, §7, §8, §9, §10, §11

The next data set deals with PS-388. Nature of the data set: PS-388 Mouse Leukemia cell line test. The format is cell-based. Conditions: Mouse Leukemia PS-388. Here is the method: as §5, §8, §9, §10, §11

A value given as a limit tells only on which side of the number the result lay.

For Dolastatin 10, the cures is listed as 17% in data set [1] (3.25 μg/kg); 17% in [1] (6.5 μg/kg); 40% in the data set on B16 Melanoma; 17% in data set [3] (3.25 μg/kg); 33% in data set [3] (6.5 μg/kg); 50% in data set [3] (13 μg/kg). In data set [3] (26 μg/kg), this substance returned a cures of 67%. Moreover, the T/C entry in [1] (13.0 μg/kg) is recorded as “toxic”; in data set [2], 120; in data set [3] (3.25 μg/kg, time of survival) it was 170; in data set [3] (52 μg/kg), “toxic”; in data set [3] (Lox in separate experiments, 43 μg/kg, time of survival) it was 340; in the data set on Human Mammary Xenograph, “Toxic”. Further, the T/C in data set [4] worked out at 300. In addition, the “T/C (Tumor Regression)” value in [5] (6.25 μg/kg) turned out to be 69; in data set [5] (13 μg/kg), 61; in [5] (26 μg/kg), 50; in data set [5] (52 μg/kg), 14.

Dov-Ie-Dil-Dap-Doe [Compound 12]: the GI-50 in the data set with OVCAR-3 was 0.0000000091 µg/mL; with SF-295, 0.000000025 µg/mL; in the data set with A498 it was 0.000000058 µg/mL; with NCI-H460, 0.0000000058 µg/mL; in the data set with KM20L2 it was 0.0000000072 µg/mL; in the data set with SK-MEL-5, 0.0000000048 µg/mL. The LC-50 in the data set on OVCAR-3, with SF-295, in the data set with A498, in the data set with NCI-H460, in the data set on KM20L2 and in the data set on SK-MEL-5 was > 1 µg/mL each time. Further, the TGI in the data set on OVCAR-3 was 6e-05 ng/mL; in the data set on SF-295, 0.00025 ng/mL; in the data set with A498, 17 ng/mL; with NCI-H460 it was 6.5e-05 ng/mL; in the data set with KM20L2, 0.0001 ng/mL; in the data set with SK-MEL-5, 0.00015 ng/mL. This substance came in with an ED-50 with PS-388 of 0.0000248 µg/mL.

For the substance “Dov-Val-Dil-Dap Octyl ester [Compound 16b]”, the GI-50 turned out to be 0.0031 µg/mL in the data set on OVCAR-3; 0.0054 µg/mL with SF-295; 0.025 µg/mL in the data set with A498; 0.0042 µg/mL in the data set with NCI-H460; 0.0017 µg/mL with KM20L2; 0.0027 µg/mL in the data set on SK-MEL-5. The LC-50 in the data set with OVCAR-3, with SF-295, in the data set with A498, in the data set on NCI-H460, with KM20L2 and in the data set with SK-MEL-5 was > 1 µg/mL each time. In addition, the TGI in the data set on OVCAR-3 is 40 ng/mL; with SF-295, > 1000 ng/mL; in the data set with A498 it was 550 ng/mL; in the data set with NCI-H460 it was 58 ng/mL; in the data set with KM20L2, 130 ng/mL; with SK-MEL-5, > 1000 ng/mL. In the data set with PS-388, this substance gave an ED-50 of 0.029 µg/mL.

Take “Dov-Val-Dil-Dap Pentyl ester [Compound 16a]”: the GI-50 in the data set with OVCAR-3 was 0.00052 µg/mL; in the data set with A498, < 0.0001 µg/mL; in the data set on NCI-H460, 0.00034 µg/mL; in the data set with SK-MEL-5 it was 0.00066 µg/mL. Further, the LC-50 with OVCAR-3, in the data set on SF-295, in the data set with A498, in the data set with NCI-H460, with KM20L2 and in the data set on SK-MEL-5 was > 1 µg/mL each time. Besides, the TGI came out at 1.1 ng/mL in the data set with OVCAR-3; 21 ng/mL in the data set on SF-295; 180 ng/mL in the data set on A498; 1.1 ng/mL with NCI-H460; 13 ng/mL in the data set on KM20L2; 31 ng/mL in the data set with SK-MEL-5. Besides, the ED-50 in the data set on PS-388 came to 0.021 µg/mL.

Turning to “Dov-Val-Dil-Dap hexylamide [Compound 16c]”, the GI-50 in the data set on OVCAR-3 was 0.0005 µg/mL; in the data set on SF-295 it was 0.0011 µg/mL; with A498, 0.0019 µg/mL; with NCI-H460, 0.00071 µg/mL; in the data set with KM20L2 it was 0.00092 µg/mL; in the data set with SK-MEL-5 it was 0.00058 µg/mL. Also, the LC-50 in the data set on OVCAR-3, in the data set on SF-295, with A498, with NCI-H460, in the data set on KM20L2 and in the data set on SK-MEL-5 was > 0.01 µg/mL each time. Besides, the TGI is 3.9 ng/mL with OVCAR-3; > 10 ng/mL in the data set on SF-295; > 10 ng/mL in the data set on A498; 5.1 ng/mL with NCI-H460; 6.6 ng/mL in the data set with KM20L2; > 10 ng/mL with SK-MEL-5. The substance also came in with an ED-50 in the data set on PS-388 of 0.00227 µg/mL.

Turning to Dov-ile-Dil-Dap-Met-OMe [Compound 14], the GI-50 was 0.000067 µg/mL in the data set on OVCAR-3; 0.00025 µg/mL in the data set with SF-295; 0.00027 µg/mL in the data set on A498; 0.00012 µg/mL in the data set with NCI-H460; 0.000034 µg/mL with KM20L2; 0.000044 µg/mL in the data set on SK-MEL-5. For the same substance, the LC-50 in the data set with OVCAR-3, in the data set with SF-295, in the data set on A498, in the data set with NCI-H460, in the data set with KM20L2 and in the data set with SK-MEL-5 was > 1 µg/mL throughout. The TGI in the data set with OVCAR-3 was 0.67 ng/mL; in the data set with SF-295, > 1000 ng/mL; in the data set on A498 it was 35 ng/mL; with NCI-H460, 0.13 ng/mL; in the data set with KM20L2, 1.3 ng/mL; in the data set on SK-MEL-5, 22 ng/mL. For the same substance, the ED-50 with PS-388 was found to be 0.00032 µg/mL.

A word on the TGI: it is the concentration giving total growth inhibition. Lower therefore signals more potent growth arrest.
